Experiments:
H4IIEC3 cells = experiment: Triglyceride concentration in culture solution of H4IIEC3 hepatocytes; assay type: cell-based, rat; details: 2 μM in culture medium; 24 hours; relative to DMSO group
Experimental: Specifically, first, H4IIEC3 cells (1×10^5 cells/well) seeded in advance in a 48-well plate, which are a cell line of rat hepatocytes, were cultured for 1 day. Next, culture medium exchange was carried out so that a high glucose DMEM (serum-free) containing each compound (concentration in culture medium: 2 μM) or DMSO as a control was 200 μL/well, and then the cells were incubated for 24 hours. Next, the triglyceride concentration in the culture solution was measured using a Triglyceride E-Test WAKO (FUJIFILM Corporation). In FIG. 7A to FIG. 7F, the triglyceride concentration in each compound addition group was indicated as a relative percentage in a case where the triglyceride concentration in the DMSO addition group was set to 100%.

human SREBP-1c = target: T1, human SREBP-1c (Homo sapiens, UniProt P36956); experiment: Gal4-SREBP-1c luciferase reporter assay in HepG2 stable expression strain; assay type: cell-based; details: EPA 100 or 300 μM, OA 300 μM, Cho 100 μM, 25HCho 30 μM in culture medium; 24 hours; vs DMSO
T1 construct: expressed in transfected cells
From the text: A pcDNA3.1 (+)-Hyg vector (manufactured by Thermo Fisher Scientific, Inc. under the brand of Invitrogen) was inserted with DNA fragments of a firefly luciferase reporter cloned from a pGL3-Basic vector (manufactured by Promega Corporation), a pSV40-Renilla luciferase reporter cloned from a pRL-SV40 vector (manufactured by Promega Corporation), and a human SREBP-1c cloned from a pTK-HSV-hSREBP-1c, whereby a vector having a structure shown in FIG. 1 was constructed. The base sequence of the vector is set forth in SEQ ID NO: 2. In FIG. 1, Gal4-BP1 is a human SREBP-1c that is obtained by fusing sequences of the Gal4-DNA binding domain and the minimal VP16-AD to the N-terminal side. 17 m8 is a DNA sequence to which the Gal4-DNA binding domain binds. CTCF is a DNA sequence that acts as an insulator, which blocks the action of transcription factors.
HepG2 cells, which are a cell line derived from human liver cancer, were cultured in advance to a confluency of 10% confluent in Dulbecco's Modified Eagle's Medium (DMEM) (containing 25 mM glucose, 100 units/mL penicillin, […] streptomycin sulfate, and 10 v/v % fetal bovine serum (FBS)) and then transfected with the vector obtained in (1) described above, by using a Lipofectamine 3000 transfection reagent (manufactured by Thermo Fisher Scientific, Inc. under the brand of Invitrogen), 5 whereby the vector was inserted into the genome. […] Next, a Reporter lysis buffer (Promega Corporation) was added to lyse the cells, and luciferase activity was measured with a luminometer.
Next, each candidate compound (concentration in culture medium: 2 or 5 μM) was added to the cell line (2×10^4 cells/well) seeded in a plurality of 384-well plates, which had been constructed in (2) described above, so that one kind of each compound was added to one well, and incubation was carried out for 24 hours. […] Next, Steady-Glo (a mixture of luciferin and a Lysis buffer) was added thereto, and then luciferase activity was measured with a luminometer. […]

human SREBP-2 = target: T2, human SREBP-2 (Homo sapiens, UniProt Q12772); experiment: Gal4-SREBP-2 luciferase reporter assay in HepG2 stable expression strain; assay type: cell-based; details: EPA 100 or 300 μM, 25HCho 30 μM in culture medium; 24 hours; vs DMSO
T2 construct: expressed in transfected cells
From the text: In order to exclude compounds such as cholesterol and 25-hydroxycholesterol, which have an inhibitory action on both SREBP-1 and SREBP-2, first, a vector having the structure shown in FIG. 3 was constructed using the same method as in “1.” described above, except that a DNA fragment of human SREBP-2 cloned from pTK-HSVhSREBP-2 was used instead of the DNA fragment of human SREBP-1c. The base sequence of the vector is set forth in SEQ ID NO: 3. In FIG. 3, Gal4-BP2 is a human SREBP-2 that is obtained by fusing sequences of the Gal4-DNA binding domain and the minimal VP16-AD to the N-terminal side.
a stable expression strain of HepG2, which stably expressed firefly luciferase, was established using the same method as in “1. (2)” described above, except that the vector obtained in “2. (1)” described above was used. […] Next, a Reporter lysis buffer (Promega Corporation) was added to lyse the cells, and luciferase activity was measured with a luminometer. […]
Among the 39 kinds of compounds, 23 kinds of compounds were selected by searching the PAINS database (https://www.rdkit.org/docs/source/rdkit. Chem.rdfiltercatalog.html) and excluding, from targets of interest, compounds for which non-specific action had been reported. […] It is noted that the SREBP-1 inhibition rate and the SREBP-2 inhibition rate in the reporter assay were calculated using the following method. […]

T1 sequence (P36956 with tags, fused parts or gaps isoform P36956-4 limits assumed): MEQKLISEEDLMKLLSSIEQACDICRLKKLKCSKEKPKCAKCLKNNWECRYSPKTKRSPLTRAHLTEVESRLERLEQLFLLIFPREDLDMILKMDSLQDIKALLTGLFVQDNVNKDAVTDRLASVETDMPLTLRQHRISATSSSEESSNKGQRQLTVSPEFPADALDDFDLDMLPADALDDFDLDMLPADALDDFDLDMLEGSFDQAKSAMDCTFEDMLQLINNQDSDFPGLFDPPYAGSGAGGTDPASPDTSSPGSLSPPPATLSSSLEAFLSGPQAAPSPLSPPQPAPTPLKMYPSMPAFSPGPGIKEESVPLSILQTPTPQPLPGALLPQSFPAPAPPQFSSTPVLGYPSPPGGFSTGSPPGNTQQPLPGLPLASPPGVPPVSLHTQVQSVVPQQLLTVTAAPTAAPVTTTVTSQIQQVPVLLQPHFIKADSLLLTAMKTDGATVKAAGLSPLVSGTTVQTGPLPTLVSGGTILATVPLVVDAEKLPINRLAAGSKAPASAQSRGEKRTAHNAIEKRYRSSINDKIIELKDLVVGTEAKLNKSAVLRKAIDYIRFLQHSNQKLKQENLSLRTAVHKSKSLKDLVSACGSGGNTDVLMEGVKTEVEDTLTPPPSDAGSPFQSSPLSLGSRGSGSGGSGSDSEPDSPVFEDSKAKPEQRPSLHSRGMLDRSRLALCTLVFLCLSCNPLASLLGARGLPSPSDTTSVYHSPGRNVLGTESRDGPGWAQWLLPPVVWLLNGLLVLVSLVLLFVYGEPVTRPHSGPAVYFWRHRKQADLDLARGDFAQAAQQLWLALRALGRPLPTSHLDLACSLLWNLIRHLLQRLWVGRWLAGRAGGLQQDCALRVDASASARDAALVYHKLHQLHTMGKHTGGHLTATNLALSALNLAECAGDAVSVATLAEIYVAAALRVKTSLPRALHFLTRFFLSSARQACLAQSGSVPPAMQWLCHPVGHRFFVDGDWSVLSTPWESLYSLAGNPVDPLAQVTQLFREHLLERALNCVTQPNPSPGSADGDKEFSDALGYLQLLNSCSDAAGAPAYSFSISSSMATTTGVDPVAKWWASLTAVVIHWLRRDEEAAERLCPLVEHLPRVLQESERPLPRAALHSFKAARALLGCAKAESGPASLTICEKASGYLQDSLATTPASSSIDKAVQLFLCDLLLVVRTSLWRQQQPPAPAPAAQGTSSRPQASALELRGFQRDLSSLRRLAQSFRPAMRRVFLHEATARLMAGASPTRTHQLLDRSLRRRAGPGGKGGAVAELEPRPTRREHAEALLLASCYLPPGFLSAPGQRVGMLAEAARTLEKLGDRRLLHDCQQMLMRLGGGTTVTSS
T2 sequence (Q12772 with tags, fused parts or gaps limits assumed): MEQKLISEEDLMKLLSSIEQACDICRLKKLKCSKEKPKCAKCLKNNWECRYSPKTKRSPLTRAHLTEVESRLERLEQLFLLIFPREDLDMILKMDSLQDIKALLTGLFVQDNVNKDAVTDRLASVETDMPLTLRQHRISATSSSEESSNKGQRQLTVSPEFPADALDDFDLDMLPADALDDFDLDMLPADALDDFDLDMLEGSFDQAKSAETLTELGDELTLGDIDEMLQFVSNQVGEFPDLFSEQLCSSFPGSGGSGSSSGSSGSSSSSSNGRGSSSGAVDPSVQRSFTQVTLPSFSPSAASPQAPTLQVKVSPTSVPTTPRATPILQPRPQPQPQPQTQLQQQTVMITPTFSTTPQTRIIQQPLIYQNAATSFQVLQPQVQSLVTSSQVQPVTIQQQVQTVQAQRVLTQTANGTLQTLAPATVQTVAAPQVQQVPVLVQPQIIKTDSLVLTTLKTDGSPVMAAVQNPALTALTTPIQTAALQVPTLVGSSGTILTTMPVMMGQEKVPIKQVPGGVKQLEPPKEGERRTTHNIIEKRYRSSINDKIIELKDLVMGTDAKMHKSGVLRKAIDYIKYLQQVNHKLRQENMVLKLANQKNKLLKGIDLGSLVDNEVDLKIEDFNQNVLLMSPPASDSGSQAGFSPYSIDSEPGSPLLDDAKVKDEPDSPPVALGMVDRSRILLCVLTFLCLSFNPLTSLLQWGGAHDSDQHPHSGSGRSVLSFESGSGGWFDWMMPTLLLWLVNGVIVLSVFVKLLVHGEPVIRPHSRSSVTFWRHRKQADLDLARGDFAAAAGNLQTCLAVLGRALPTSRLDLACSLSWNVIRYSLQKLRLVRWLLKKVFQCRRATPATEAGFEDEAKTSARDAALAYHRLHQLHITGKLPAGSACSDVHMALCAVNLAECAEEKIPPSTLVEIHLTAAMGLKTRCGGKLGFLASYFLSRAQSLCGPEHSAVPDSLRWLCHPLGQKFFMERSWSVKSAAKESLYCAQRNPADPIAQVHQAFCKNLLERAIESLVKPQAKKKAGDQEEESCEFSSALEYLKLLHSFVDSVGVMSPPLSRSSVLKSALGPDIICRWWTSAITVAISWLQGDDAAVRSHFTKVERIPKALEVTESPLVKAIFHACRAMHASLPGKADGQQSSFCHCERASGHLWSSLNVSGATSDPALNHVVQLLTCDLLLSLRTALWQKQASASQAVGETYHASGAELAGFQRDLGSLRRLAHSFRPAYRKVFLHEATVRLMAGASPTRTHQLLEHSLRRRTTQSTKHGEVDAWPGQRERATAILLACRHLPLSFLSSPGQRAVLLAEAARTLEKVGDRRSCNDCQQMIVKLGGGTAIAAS

Structure (SMILES) | triglycerides in culture solution of cultured hepatocytes (FIG. 7A-7F) (H4IIEC3 cells) | luciferase activity (SREBP-1 reporter, FIG. 2) (human SREBP-1c) | luciferase activity (SREBP-2 reporter, FIG. 4) (human SREBP-2)
C=CCNc1nc(-c2ccc(N3CCCC3=O)cc2)cs1 [(11)] | reduce triglycerides |  | 
C[C@H](CCCC(C)(C)O)[C@H]1CC[C@H]2[C@@H]3CC=C4C[C@@H](O)CC[C@]4(C)[C@H]3CC[C@]12C [Compound 25HCho, 25-hydroxycholesterol] |  | luciferase activity was reduced | luciferase activity was reduced
CC(C)CCC[C@@H](C)[C@H]1CC[C@H]2[C@@H]3CC=C4C[C@@H](O)CC[C@]4(C)[C@H]3CC[C@]12C [Cho, cholesterol] |  | luciferase activity was reduced | 
CCCOc1ccccc1OC(=O)CN1C(=O)COc2ccccc21 [(5)] | reduce triglycerides |  | 
CCCCCCCC/C=C\CCCCCCCC(=O)O [OA, oleic acid] |  | luciferase luminescence was observed | 
CSc1nn(-c2ccc([N+](=O)[O-])cc2)c(N)c1C(N)=O [(6), 5-amino-3-methylsulfanyl-1-(4-nitrophenyl)pyrazole-4-carboxamide] | reduce triglycerides |  | 
COc1ccc2c(c1)[nH]c1c(C)nccc12 [(16)] | reduce triglycerides |  | 
CCc1c2c(nc3ccc(O)cc13)-c1cc3c(c(=O)n1C2)COC(=O)[C@]3(O)CC [(22a)] | reduce triglycerides |  | 

From US20250082612A1, “SREBP-1 INHIBITOR AND PHARMACEUTICAL COMPOSITION FOR TREATING […]” (Jichi Medical University, priority 2021, published 2025)
